The subject of experiment [1] is rhizavidin. Description: binding of rhizavidin to ligands assessed for affinity chromatography. Conditions: for binding to rhizavidin: ligand assessed for affinity chromatography. Also on record: species or system Rhizobium etli.
Experiment [2] deals with rhizavidin. The experiment in a line: affinity column purification of rhizavidin with immobilized ligand. Also on record: species or system Rhizobium etli. The following applies: data not shown. On the procedure:
The following steps can be followed to prepare a LA-matrix for use in the methods as disclosed herein: • i. Resuspend CARBOXYLINK™ Coupling Resin (Life technologies, 20266) and aliquot 1 ml of suspended resin into an empty column, e.g., a bio-rad Econo-Pac Chromatography Column, allow resin to settle. Wash the resin with approx.20 ml of water and add 10 ml of PBS (×1) to equilibrate resin. • ii. Prepare a 100 mg/ml solution of Sulfo-NHS by dissolving 50 mg of Sulfo-NHS (N-hydroxysulfosuccinimide) in 0.5 ml of 0.1M MES buffer. • iii. Prepare a Sulfo-NHS/LA mixture by adding 0.25 ml of ethanol and 0.25 ml of 50 mg/ml LA stock solution (12.5 mg of LA) to 0.5 ml of Sulfo-NHS (100 mg/ml). • iv. To cross link the LA to the resin, dissolve 25 mg of EDC in 0.75 ml of coupling buffer and immediately add to Sulfo-NHS/LA mixture. Incubate the EDC/Sulfo-NHS/LA mixture with rotation for 30 min RT. Adjust the pH of the EDC/Sulfo-NHS/LA mixture to pH 7.0 by adding 1M Na2HPO4 (pH11) (approx. 0.5 ml of 1M Na2HPO4) • v. Resuspend the equilibrated CARBOXYLINK™ Coupling Resin with EDC/Sulfo-NHS/LA mixture and transfer everything to a 5 ml tube, incubate with rotation overnight RT. • vi. Transfer resin into an empty column, allow LA resin/LA matrix to settle. Wash resin with the following reagents in the following order; (i) 20 ml of wash buffer, (ii) 20 ml of H2O, (iii) Wash resin comprising 5 ml of 20% ethanol. Store LA resin/LA matrix in 20% ethanol until use.
The following steps can be followed in the methods as disclosed herein to purify a biotin-binding protein, e.g., rhizavidin or a rhiavidin fusion protein using a LA-matrix from a bacterial suspension expressing the rhizavidin or a rhiavidin fusion protein: • v. Collect E. coli culture by centrifugation, discard supernatant, and resuspend pelleted cells with a lysis buffer (20 mM Tris, 1M NaCl, pH8.0) containing DNase, proteinase inhibitors and 10 mM MgCl2. […] Transfer resin into an empty column after incubation and wash the LA resin with wash buffer (50% ethanol, 20 mM Tris, 1M NaCl) until no protein is detected in flow through • ix. […]

Experiment [3] has as its target streptavidin (Streptomyces avidinii, UniProt P22629). Conditions: cited from earlier work.

Sequence of streptavidin (P22629 25-183): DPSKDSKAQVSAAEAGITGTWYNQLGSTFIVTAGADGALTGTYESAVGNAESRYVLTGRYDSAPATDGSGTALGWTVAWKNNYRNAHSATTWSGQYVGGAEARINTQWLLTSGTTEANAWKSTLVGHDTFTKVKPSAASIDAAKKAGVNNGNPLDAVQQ

For the compound `Cc1cc(N=Nc2ccccc2C(=O)O)cc(C)c1O` [dimethyl-HABA], the binding to rhizavidin entry in experiment [1] is “did not bind”. For the same compound, in experiment [2], the “effectiveness of column comprising the ligand at purifying rhizavidin” value (“effectiveness” below) is recorded as “not effective”. The binding to streptavidin entry in experiment [3] is “bind with high affinity”.
For `O=C(O)CCCCC1CCSS1` (stereo not drawn) [lipoic acid, 1,2-dithione-3-pentanoic acid], in experiment [1], the “affinity of binding to rhizavidin” value is “micromolar affinity” and the “affinity of rhizavidin for lipoic acid compared with polyhistadine tag for nickel” value is listed as “approximately the same as histadine”. In addition, the “effectiveness” value in experiment [2] was “effective”.
As for `O=C(O)c1ccccc1N=Nc1ccc(O)cc1` [HABA, hydrooxyazobenzene-benzoic acid], in experiment [1], the binding to rhizavidin entry is given as “did not bind”. Besides, the “effectiveness” value in experiment [2] is “not effective”. Further, in experiment [3], the binding to streptavidin result was “bind with high affinity”.

The values above are taken from patent publication US20190119332A1, “METHODS TO PURIFY AVIDIN-LIKE PROTEINS AND FUSION PROTEINS THEREOF” (THE CHILDREN'S MEDICAL CENTER CORPORATION, priority 2016, published 2019).
